# Tests used:
# BALB/c mice = assay: cytokine responses in iliac lymph nodes after mucosal (IN/SL) and systemic (IM) vaccinations; type: in vivo; details: two mucosal (IN/SL) and one systemic (IM) boosting vaccinations vs. three IM vaccinations with Imject Alum; FIG. 4
# mice = assay: serum TNFα and IL-6 at 6 hours following a single IM injection; type: in vivo; details: 6 hours after single IM vaccination; vs. NIDS or no adjuvant; FIG. 8
# Protocol: To find further in vivo support of the above air pouch model results, in vivo production of early pro-inflammatory cytokines TNFα and IL-6 were determined in sera of mice at 6 hours following a single IM injection of NIDS vs. poly (I:C) vs. no adjuvant.
# murine air pouch model = murine air pouch model of local cytotoxicity, multiplex Luminex of pouch fluid; type: in vivo, mice; details: compared to injection of NIDS, FIG. 7
# Protocol: A local cytotoxicity test was performed by employing the murine air pouch model.
# Female BALB/c mice = assay: Example 5: IM vaccination with gp120 BaL in oleic acid formulations, serum gp120-specific IgG1 ELISA at 2WP2; type: in vivo; details: 40% oleic acid, compared to oleic acid plus EGCG, VA plus EGCG alone or no adjuvant, FIG. 11
# Protocol: Groups of 4 female BALB/C mice were vaccinated intra-muscularly with various vaccine formulations containing 2.5 ug gp120 from the BaL Glade of HIV-1 twice at a 3 weeks interval. Serum gp120-specific IgG1 titers were measured by ELISA at 2 weeks post second vaccination (2WP2). The mice were vaccinated with combinations of retinyl palmitate (RP; 54 IU), epigallo catechin gallate (EGCG; 120 ug) in either 40% oleic acid, each alone or in various combinations.
# [1] = air pouch supernatant 6 hours after injection
Compound,local TH1 and TH2 cytokine responses in iliac lymph nodes (BALB/c mice),serum IL-6 (mice),serum TNFα (mice),TNFα (murine air pouch model; air pouch supernatant 6 hours after injection of seven mouse vaccine dose equivalents),G-CSF (murine air pouch model; [1]),IL-6 (murine air pouch model; [1]),IP-10 (murine air pouch model; [1]),KC (murine air pouch model; [1]),MCP-1 (murine air pouch model; [1]),MIP1-a (murine air pouch model; [1]),MIP-1b (murine air pouch model; [1]),MIP-2 (murine air pouch model; [1]),RANTES (murine air pouch model; [1]),serum IgG1 antigen-specific responses (Female BALB/c mice)
poly (I:C),enhanced,significantly enhanced,significantly enhanced,Significantly higher,Significantly higher,Significantly higher,Significantly higher,Significantly higher,Significantly higher,Significantly higher,Significantly higher,Significantly higher,Significantly higher,–
CCCCCCCC/C=C\CCCCCCCC(=O)O [oleic acid],–,–,–,–,–,–,–,–,–,–,–,–,–,enhanced

# Reference: patent US10561720B2, “Pharmaceutical compositions, comprising a combination of select carriers, vitamins, tannins and flavonoids as antigen-specific immuno-modulators” (EpitoGenesis, Inc., priority 2011, dated 2020)
